Measured values from patent US20180117013A1, “METHODS OF TREATING LIVER DISEASE USING INDANE ACETIC ACID DERIVATIVES” (T3D THERAPEUTICS, INC., priority 2015, published 2018).

Tested on: high fat diet ZDF rats
Assay: NAFLD/NASH animal model, high fat diet ZDF rats
Type: in vivo, rat
Conditions: high fat diet ZDF male rats; all three doses (0.3, 1.0, 3 mg/kg) PO q.d. for 5 weeks
Description: Twelve week old ZDF male rats (n=6 per group) were acclimated for 3 weeks prior to study initiation then fed with either a high fat (D12492+0.5% added cholesterol with 55% wt/vol fructose in drinking water) or low fat (DL12405J) diets. The compound of Example 10 above, vehicle, or pioglitizone were administered by oral gavage q.d. for 5 weeks as described in Table 1.
Body weights were recorded weekly, and blood samples were collected from all animals at the end of weeks 4, 5, 6 and 7 following an overnight fast, and triglycerides, cholesterol, AST, ALT, insulin, and BG were measured in singlet. After week 8, the livers were harvested from all animals and weighed. The left lobe was placed in 10% NBF for NASH scoring by PAI (H % E staining, Oil Red O staining and Sirius Red staining). One half of the right lobe was snap-frozen for qPCR (to quantify type 1 collagen, insulin receptor, IGF-1, ceramide synthase 2, sphingomyelin phosphodiesterase 3, MCP-1 and IL-6). The remaining right lobe was snap-frozen for estimation of liver triglycerides and cholesterol.

## CCc1oc(-c2ccc(OC)cc2)nc1CCOc1ccc2c(c1)CC[C@H]2CC(=O)O [Example 10, (S)-2-(5-(2-(5-ethyl-2-(4-methoxyphenyl)oxazol-4-yl)ethoxy)-2,3-dihydro-1H-inden-1-yl)acetic acid]
  protection from NASH like symptoms: protection from NASH like symptoms
